Reference: PubChem BioAssay (NCI)
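96-well plates; 48 h exposure; 5 concentrations. Endpoints by linear interpolation between flanking doses. Not reached: highest tested concentration assigned. Definition used: TGI = concentration required for complete inhibition of growth.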

Assays:
Test in all cases: NCI tumour cell line growth inhibition, 48 h
[1] = test system: DMS 114 small cell lung
[2] = test system: SNB-78 CNS
[3] = test system: SN12K1 renal
[4] = test system: DLD-1 colon
[5] = test system: HOP-18 NSCLC
[6] = test system: XF 498 CNS
[7] = test system: LXFL 529 NSCLC
[8] = test system: P388 leukemia
[9] = test system: P388/ADR leukemia

Compound | TGI [1] | TGI [2] | TGI [3] | TGI [4] | TGI [5] | TGI [6] | TGI [7] | TGI [8] | TGI [9]
COC1=C(C)C(=O)C2=C(C1=O)C1C3CC4=C(C(=O)C(OC)=C(C)C4=O)C(CNC(=O)C(C)O)N3C(C#N)C(C2)N1C (stereo not drawn) | < 0.01 µM | 0.0863 µM | < 0.01 µM | 0.372 µM | < 0.01 µM | – | – | – | –
O=C(Nc1ccccc1Cl)c1ccc([N+](=O)[O-])cc1 | – | > 100 µM | – | > 100 µM | – | > 100 µM | – | – | –
C=CC(C)C1(CCCOCc2ccccc2)C(=S)N2CCC3(CC24CCCC14)OCCO3 (stereo not drawn) | > 100 µM | > 100 µM | – | > 100 µM | > 100 µM | 52.7 µM | > 100 µM | – | –
COC1=CC(=O)C=C(OC)C1=O | 13.5 µM | 56.8 µM | 18 µM | 27.9 µM | 79.7 µM | 6.34 µM | – | 1.25 µM | 1.08 µM
COC(=O)C(Cc1ccc(N(C)C)cc1)(NC(=O)c1ccccc1)P(=O)(OC)OC (stereo not drawn) | > 100 µM | – | – | – | – | > 100 µM | > 100 µM | – | –
CNC(=O)SCC(NC(=O)CCC(N)C(=O)O)C(=O)NCC(=O)O (stereo not drawn) | > 100 µM | > 100 µM | > 100 µM | > 100 µM | > 100 µM | > 100 µM | – | > 100 µM | > 100 µM
